# Assay results published in the supplement of paper PMC10307832.
# Legend:
# Assay in all cases: relative viability (nuclei count vs DMSO), 5 days (fraction); higher = more cells survive
# IMD-0354 + Alpelisib = compound: O=C(Nc1cc(C(F)(F)F)cc(C(F)(F)F)c1)c1cc(Cl)ccc1O [IMD-0354] + Cc1nc(NC(=O)N2CCC[C@H]2C(N)=O)sc1-c1ccnc(C(C)(C)C(F)(F)F)c1 [Alpelisib] (partner 2 µM)
# How it was run: (§1)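 One day after seeding in 1536-well plates, lung cancer cell lines were dosed by pin tool. Dosing was either single-drug or a fixed anchor-drug dose plus five library-drug doses (not always all listed) in √10 steps. After 5 days, nuclei were stained in one fix-and-stain step and counted on 4× images, and relative viability is the nuclei count of treated wells over that of vehicle wells, given as the median of duplicate plates.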
# CX-5461 + Palbociclib = compound: Cc1cnc(CNC(=O)c2c(=O)c3ccc(N4CCCN(C)CC4)nc3n3c2sc2ccccc23)cn1 [CX-5461] + CC(=O)c1c(C)c2cnc(Nc3ccc(N4CCNCC4)cn3)nc2n(C2CCCC2)c1=O [Palbociclib] (partner 0.5 µM)
# How it was run: as §1
# IMD-0354 + Decitabine = compound: O=C(Nc1cc(C(F)(F)F)cc(C(F)(F)F)c1)c1cc(Cl)ccc1O [IMD-0354] + Nc1ncn([C@H]2C[C@H](O)[C@@H](CO)O2)c(=O)n1 [Decitabine] (partner 2 µM)
# How it was run: as §1
# CX-5461 + Pemetrexed = compound: Cc1cnc(CNC(=O)c2c(=O)c3ccc(N4CCCN(C)CC4)nc3n3c2sc2ccccc23)cn1 [CX-5461] + Nc1nc2[nH]cc(CCc3ccc(C(=O)N[C@@H](CCC(=O)O)C(=O)O)cc3)c2c(=O)[nH]1 [Pemetrexed] (partner 0.2 µM)
# How it was run: as §1
Cell Line,relative viability (IMD-0354 + Alpelisib; first compound 0.04 µM),relative viability (IMD-0354 + Alpelisib; first compound 0.1265 µM),relative viability (IMD-0354 + Alpelisib; first compound 0.4 µM),relative viability (IMD-0354 + Alpelisib; first compound 1.265 µM),relative viability (IMD-0354 + Alpelisib; first compound 4 µM),relative viability (CX-5461 + Palbociclib; first compound 0.01 µM),relative viability (CX-5461 + Palbociclib; first compound 0.03162 µM),relative viability (CX-5461 + Palbociclib; first compound 0.1 µM),relative viability (CX-5461 + Palbociclib; first compound 0.3162 µM),relative viability (CX-5461 + Palbociclib; first compound 1 µM),relative viability (IMD-0354 + Decitabine; first compound 0.04 µM),relative viability (IMD-0354 + Decitabine; first compound 0.1265 µM),relative viability (IMD-0354 + Decitabine; first compound 0.4 µM),relative viability (IMD-0354 + Decitabine; first compound 1.265 µM),relative viability (IMD-0354 + Decitabine; first compound 4 µM),relative viability (CX-5461 + Pemetrexed; first compound 0.01 µM),relative viability (CX-5461 + Pemetrexed; first compound 0.03162 µM),relative viability (CX-5461 + Pemetrexed; first compound 0.1 µM),relative viability (CX-5461 + Pemetrexed; first compound 0.3162 µM),relative viability (CX-5461 + Pemetrexed; first compound 1 µM)
NCI-H1395,0.992,0.889,0.98,0.465,0.324,0.624,0.599,0.586,0.572,0.498,0.74,0.645,0.713,0.358,0.402,0.835,0.846,0.816,0.437,0.488
HCC-366,0.509,0.727,0.148,0.373,0.0309,0.451,0.546,0.355,0.308,0.287,0.423,0.395,0.248,0.0815,0.0425,0.196,0.172,0.179,0.197,0.149
BEN,1.11,0.915,0.498,0.442,0.245,0.497,0.441,0.433,0.5,0.437,0.739,0.741,0.567,0.391,0.347,0.75,0.742,0.711,0.759,0.556
NCI-H23,0.802,0.695,0.412,0.435,0.243,0.48,0.584,0.499,0.576,0.43,0.271,0.313,0.295,0.192,0.24,0.524,0.862,0.7,0.71,0.508
NCI-H1793,0.686,0.64,0.34,0.369,0.226,0.307,0.306,0.345,0.32,0.283,0.583,0.438,0.335,0.098,0.262,1.17,1.21,0.92,0.706,0.802
201T,1.02,1.08,0.683,1.1,0.351,0.35,0.344,0.363,0.355,0.35,0.797,0.807,0.851,0.828,0.331,0.324,0.302,0.329,0.318,0.318
NCI-H358,0.944,0.746,0.429,0.223,0.306,0.135,0.124,0.135,0.0878,0.084,0.239,0.204,0.172,0.106,0.108,0.159,0.157,0.165,0.173,0.156
NCI-H460,0.544,0.49,0.2,0.0672,0.0154,0.221,0.0725,0.0509,0.0722,0.0229,0.401,0.561,0.183,0.0498,0.0274,0.0543,0.0602,0.0575,0.0623,0.0755
NCI-H661,0.838,0.772,0.401,0.345,0.248,0.418,0.374,0.368,0.367,0.337,0.567,0.534,0.389,0.244,0.233,0.928,0.902,0.855,0.802,0.722
HCC-15,0.861,0.853,0.466,0.272,0.0938,0.705,0.759,0.808,0.725,0.592,0.68,0.614,0.292,0.108,0.161,0.232,0.232,0.215,0.233,0.204
LCLC-103H,0.952,0.998,0.839,0.815,0.397,0.496,0.493,0.458,0.466,0.464,0.727,0.737,0.635,0.546,0.293,0.426,0.482,0.46,0.401,0.4
NCI-H441,,0.78,0.398,0.285,0.217,0.233,0.243,0.205,0.203,0.194,0.223,0.256,0.247,0.131,0.146,0.261,0.268,0.241,0.242,0.226
EPLC-272H,1.04,0.893,0.648,0.842,0.374,0.309,0.322,0.324,,0.352,0.372,0.341,0.362,0.337,0.288,0.319,0.382,0.367,0.402,0.377
